What was measured:
Assay in all cases: relative viability (nuclei count vs DMSO), 5 days (fraction); higher = more cells survive
Silmitasertib = compound: O=C(O)c1ccc2c(c1)nc(Nc1cccc(Cl)c1)c1ccncc12 [Silmitasertib]
Summary of the method: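 For viability, nuclei in each treated well were divided by nuclei in vehicle wells and the median across plates was taken. Lung cancer cell lines in 1536-well plates were pinned with five library-drug doses (not always all listed) spaced by √10, cultured 5 days without medium change, and imaged at 4× after Hoechst staining, with plates passing only at control CV below 25% and at least one doubling.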

[1] = compound: O=C(O)c1ccc2c(c1)nc(Nc1cccc(Cl)c1)c1ccncc12 [Silmitasertib] + O=C(CCCCCCC(=O)Nc1ccccc1)NO [Vorinostat] (partner 1 µM)
Summary of the method: (§1)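 The day after seeding in 1536-well plates, lung cancer cell lines were treated by pin tool with a single drug, or with a fixed anchor-drug dose together with five library-drug doses (not always all listed) in √10 steps. After 5 days, a combined fix-and-stain solution (final 0.05% Triton X-100, 1% formaldehyde, 1 ug/ml Hoechst) was added. Nuclei counted on 4× images gave relative viability as treated counts over vehicle counts, reported as the median of duplicate plates.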

[2] = compound: O=C(O)c1ccc2c(c1)nc(Nc1cccc(Cl)c1)c1ccncc12 [Silmitasertib] + CS(=O)(=O)CCNCc1ccc(-c2ccc3ncnc(Nc4ccc(OCc5cccc(F)c5)c(Cl)c4)c3c2)o1 [Lapatinib] (partner 2 µM)
Summary of the method: as §1

[3] = compound: O=C(O)c1ccc2c(c1)nc(Nc1cccc(Cl)c1)c1ccncc12 [Silmitasertib] + CC(=O)Nc1cccc(-n2c(=O)n(C3CC3)c(=O)c3c(Nc4ccc(I)cc4F)n(C)c(=O)c(C)c32)c1 [Trametinib] (partner 0.02 µM)
Summary of the method: as §1

Silmitasertib + AZD7762 = compound: O=C(O)c1ccc2c(c1)nc(Nc1cccc(Cl)c1)c1ccncc12 [Silmitasertib] + NC(=O)Nc1cc(-c2cccc(F)c2)sc1C(=O)N[C@H]1CCCNC1 [AZD7762] (partner 0.2 µM)
Summary of the method: as §1

| Cell Line | relative viability (Silmitasertib; 0.04 µM) | relative viability (Silmitasertib; 0.4 µM) | relative viability (Silmitasertib; 1.265 µM) | relative viability (Silmitasertib; 4 µM) | relative viability ([1]; first compound 0.04 µM) | relative viability ([1]; first compound 0.4 µM) | relative viability ([1]; first compound 1.265 µM) | relative viability ([1]; first compound 4 µM) | relative viability ([2]; first compound 0.04 µM) | relative viability ([2]; first compound 0.4 µM) | relative viability ([2]; first compound 1.265 µM) | relative viability ([2]; first compound 4 µM) | relative viability ([3]; first compound 0.04 µM) | relative viability ([3]; first compound 0.4 µM) | relative viability ([3]; first compound 1.265 µM) | relative viability ([3]; first compound 4 µM) | relative viability (Silmitasertib + AZD7762; first compound 0.04 µM) | relative viability (Silmitasertib + AZD7762; first compound 0.4 µM) | relative viability (Silmitasertib + AZD7762; first compound 1.265 µM) | relative viability (Silmitasertib + AZD7762; first compound 4 µM) |
| --- | --- | --- | --- | --- | --- | --- | --- | --- | --- | --- | --- | --- | --- | --- | --- | --- | --- | --- | --- | --- |
| NCI-H2009 | 1.05 | 0.878 | 0.85 | 0.608 | 0.787 | 0.681 | 0.795 | 0.751 | 1.04 | 0.636 | 0.85 | 0.341 | 0.342 | 0.271 | 0.254 | 0.239 |  |  |  |  |
| HCC-78 | 1.05 | 0.697 | 0.654 | 0.764 | 0.459 | 0.421 | 0.402 | 0.437 | 1.15 | 0.511 | 0.187 | 0.322 | 0.794 | 0.615 | 0.537 | 0.656 | 0.783 | 0.469 | 0.405 | 0.475 |
| SK-LU-1 | 1.13 | 0.703 | 0.802 | 0.457 | 0.851 | 0.673 | 0.587 | 0.35 | 0.995 | 0.649 | 0.369 | 0.388 | 0.733 | 0.46 | 0.298 | 0.289 |  |  |  |  |
| ABC-1 | 1.37 | 0.773 | 0.656 | 0.465 | 1.22 | 0.733 | 0.642 | 0.553 | 1.19 | 0.848 | 0.58 | 0.884 |  |  |  |  | 0.948 | 0.824 | 0.8 | 0.567 |
| NCI-H1703 | 1.13 | 0.883 | 1.1 | 1.11 |  |  |  |  | 1.27 | 0.868 | 1.01 | 0.892 |  |  |  |  | 0.136 |  | 0.153 | 0.146 |
| COR-L 105 | 1.05 | 0.902 | 0.768 | 0.553 | 0.843 | 0.901 | 0.688 | 0.663 | 0.338 | 0.312 | 0.311 | 0.349 | 0.491 | 0.434 | 0.401 | 0.478 |  |  |  |  |
| NCI-H661 | 1.06 | 0.829 | 0.946 | 0.991 | 0.812 | 0.847 | 0.737 | 0.631 | 0.522 |  | 0.477 | 0.661 | 0.645 | 0.605 | 0.667 | 0.615 |  |  |  |  |
| NCI-H1650 | 1.15 | 0.784 | 0.629 | 0.389 | 0.577 | 0.386 | 0.421 | 0.288 | 1.4 | 0.825 | 0.671 | 0.23 | 0.769 | 0.56 | 0.428 | 0.256 |  |  |  |  |
| SW 1573 | 1.19 | 0.955 | 0.876 | 0.779 | 1.17 | 0.661 | 0.908 | 0.577 | 1.1 | 1.07 | 1.11 | 0.67 | 0.529 | 0.54 | 0.478 | 0.439 |  |  |  |  |
| UMC-11 | 1.11 | 0.916 | 0.985 | 0.684 | 0.388 | 0.522 | 0.439 | 0.333 | 1.14 | 0.949 | 0.965 | 0.359 | 0.73 | 0.65 | 0.353 | 0.403 |  |  |  |  |
| LCLC-103H | 0.986 | 0.99 | 0.945 | 0.628 | 0.823 | 0.693 | 0.774 | 0.428 |  |  |  |  | 0.689 | 0.71 | 0.648 | 0.636 | 0.839 | 0.803 | 0.759 | 0.588 |
| NCI-H2342 | 1.1 | 0.839 | 0.998 | 0.839 | 0.782 |  | 0.746 | 0.727 |  |  |  |  | 0.909 |  | 0.781 | 0.811 | 0.471 |  | 0.387 | 0.401 |
| NCI-H520 | 1.11 | 0.835 | 0.887 | 0.802 | 0.773 | 0.907 | 0.912 | 0.802 | 0.93 | 0.902 | 0.773 | 0.438 | 0.832 | 0.668 | 0.524 | 0.626 |  |  |  |  |
| SW 900 | 1.02 | 0.503 | 0.651 | 0.295 | 0.585 | 0.403 | 0.446 | 0.172 |  |  |  |  | 0.929 | 0.624 | 0.647 | 0.492 | 0.72 | 0.578 | 0.691 | 0.338 |
| NCI-H522 | 1.09 | 0.788 | 0.82 | 0.694 | 0.99 | 0.715 | 0.929 | 0.863 |  |  |  |  | 0.715 | 0.68 | 0.814 | 0.817 | 0.89 | 0.841 | 0.822 | 0.819 |
| NCI-H2023 | 1.03 | 0.791 | 0.87 | 0.651 | 0.839 | 0.268 | 0.63 | 0.374 | 1.05 | 0.373 | 0.767 | 0.159 | 0.728 | 0.569 | 0.373 | 0.535 |  |  |  |  |
| NCI-H441 | 1 |  | 0.892 | 0.757 | 0.935 |  | 0.822 | 0.843 |  |  |  |  | 0.562 |  | 0.313 | 0.231 | 1.34 |  | 1.09 | 1.16 |
| NCI-H2228 | 0.949 | 0.715 | 1.12 | 1.06 | 0.848 | 0.513 | 0.779 | 0.875 | 1.16 | 0.944 | 1.03 | 1 | 0.554 | 0.375 | 0.456 | 0.464 |  |  |  |  |
| NCI-H1792 | 0.987 | 0.788 | 0.858 | 0.416 |  |  |  |  | 0.886 | 0.711 | 0.874 | 0.608 | 0.407 | 0.478 | 0.432 | 0.562 | 0.737 | 0.56 | 0.59 | 0.444 |
| IA-LM | 1.03 | 0.749 | 1.08 | 0.409 | 1.05 |  | 1.21 | 0.538 | 1.1 | 0.615 | 0.967 | 0.203 |  |  |  |  |  |  |  |  |
| NCI-H1563 | 0.989 | 1.03 | 0.887 | 0.903 |  |  |  |  | 1.13 | 0.925 | 0.909 | 0.877 |  |  |  |  |  |  |  |  |

Source: the supplement of paper PMC10307832
